Tests used:
[1] = system: human naïve state stem cells; experiment: stem cell drug screening assay on naïve state stem cells; type: cell-based; conditions: 6 uM, 3 days
Description: The stem cell screening assay, was performed in both the presence and absence of the stem cell growth factors: NME7AB for growing naïve stem cells or FGF for growing primed stem cells. If the cognate growth factor was present, then the biological or small molecule would have to compete away the growth factor to get an effect. Therefore, we expected to see more of an effect when the growth factor, FGF for primed stem cells or NME7AB or NME1 dimers for naïve stem cells, was absent. The effect of the compounds on stem cells was visually determined and compounds were ranked 0-4, with 4 being the greatest effect and 0 being no observable effect. The major effect that was observed was a change from pluripotent stem cell morphology, which is a cobblestone pattern of small round cells with a large nucleus to cytoplasm ratio, to that of differentiating stem cells, which are elongated, large and flattened cells with a smaller nucleus to cytoplasm ratio. […] The compounds were added to a final concentration of 6 uM to either naïve state stem cells or primed state stem cells. In this particular case, the naïve state stem cells were maintained in a naïve state by culturing in a media containing NME7AB or NME1 dimers. However, other methods such as 2i and 5i (Silva et al., 2008, Nichols and Smith, 2009, Theunissen et al., 2014)] can be used to maintain stem cells in a more naïve state. In this case primed state stem cells were cultured in bFGF over a layer of MEFs, although it is known that any bFGF containing media will maintain stem cells in the primed state.
Stem cells whether embryonic or induced pluripotent stem (iPS) cells were cultured in a minimal, serum-free media that contained human recombinant NME7AB at a concentration of 2-32 nM wherein 4-8 nM is preferred and 4 nM is more preferred. To facilitate surface attachment, cell culture plates were coated with an anti-MUC1* monoclonal antibody called MN-C3 or C3 or MN-C8 at a concentration of 2-100 ug/mL coating solution, wherein 3-50 ug/mL is preferred and 6-12.5 ug/mL is more preferred. In these experiments, 12.5 ug/mL of MN-C3 was used. Antibody coated plates were incubated at 4 degrees C. overnight prior to plating stem cells. A Rho kinase I inhibitor was added to enhance surface attachment. In some cases, NME7AB was substituted with human recombinant NME1 dimers which also induce stem cells to revert to a naïve-like state.
Human naïve state and primed stem cells were cultured in parallel for at least 5 passages to guarantee normal differentiation-free growth. The stem cells were plated in 12-well cell culture plates with 50,000 cells per well. Cells were cultured in their respective media, either bFGF media or NME7AB media for 24 hours. Media was then removed and replaced with media devoid of bFGF or NME7AB, when indicated. Agents being tested for their ability to induce differentiation of naïve stem cells were added to the media at the concentrations indicated. After 72 hours, photographs were taken see FIGS. 1-10.
Human naïve state and primed stem cells were cultured in parallel for at least 5 passages to guarantee normal differentiation-free growth. The stem cells were plated in 12-well cell culture plates with 50,000 cells per well. Cells were cultured in their respective media, either bFGF media or NME7AB media for 24 hours. Media was then removed and replaced with media devoid of bFGF or NME7AB. […] Media was changed after 48 hours and replaced with fresh media containing the BRD4 inhibitors. After 4 days the experiment was stopped. Photographs were taken and cell pellets collected for further analysis, see FIGS. 11-16.

[2] = system: NME7AB-induced transition of regular cancer cells to metastatic cancer cells; experiment: transition of regular cancer cells to metastatic cancer cells (previously shown); type: cell-based
[3] = system: T47D breast cancer cells; experiment: cancer cell proliferation assay (Calcein live cell stain); type: cell-based, human; conditions: live cell Calcein stain, 96 hours (FIG. 113)
Description: These analogs of MN1194 and 1186 were also tested in a cell growth assay (FIGS. 107A1-107H6 and FIG. 108A1-108H6, respectively). In this experiment, both parent compound and analogs thereof were added to normal cell culture media to final concentrations of 40 uM, 20 uM, 10 uM, 5 uM or 2.5 uM. For comparison, previously known cancer cell migration inhibitors SU11274 and MN1204 were included in the same experiment. […] Relative cell proliferation is quantified on a standard plate reader that reads the fluorescence of the Calcein that is taken up by live cells.
Small molecule inhibition of cancer cell proliferation studies were also performed on several cancer sub-types. […] The small molecules of the invention had the most robust effect on T47D breast cancer cells, which are highly positive for MUC1* growth factor receptor, and its activating ligands NME7AB and NME7-X1.
For the cancer cell proliferation experiment cancer cells were plated at constant densities (6000 cells/well) into a 96-well White-walled/Clear-bottom Tissue Culture Treated plate (Corning Incorporated, Big Flats, N.Y.). Small molecule analogs are added at T=24 hours in media with 2% FBS. Following the addition of the small molecules, the cells remain untouched for 120 hours with visual confirmations/inspections at 24, 48, 72 and 96 hours post plating. At the 120 hour mark a calcein fluorescence assay (Thermo Fisher Scientific, Waltham, Mass.) is performed on the plate. Calcein fluorescence (final concentration 0.5 uM) is used to assess cell viability. Cancer cell fluorescence is measured in a TECAN SAFIRE^2 spectrophotometer plate reader. The plate is then imaged using an Olympus IX71 fluorescence imaging microscope and montage of the resulting images are assembled using ImageJ.

[4] = system: SK-OV-3 MUC1* positive ovarian cancer cells; experiment: cancer cell proliferation assay (Calcein); type: cell-based; conditions: 96 hours (FIG. 112)
Description: Small molecule inhibition of cancer cell proliferation studies were also performed on several cancer sub-types. […] The small molecules of the invention had the most robust effect on T47D breast cancer cells, which are highly positive for MUC1* growth factor receptor, and its activating ligands NME7AB and NME7-X1. […] For the cancer cell proliferation experiment cancer cells were plated at constant densities (6000 cells/well) into a 96-well White-walled/Clear-bottom Tissue Culture Treated plate (Corning Incorporated, Big Flats, N.Y.). Small molecule analogs are added at T=24 hours in media with 2% FBS. […] […] Calcein fluorescence (final concentration 0.5 uM) is used to assess cell viability. Cancer cell fluorescence is measured in a TECAN SAFIRE^2 spectrophotometer plate reader. The plate is then imaged using an Olympus IX71 fluorescence imaging microscope and montage of the resulting images are assembled using ImageJ.

[5] = system: OV-90 MUC1* negative ovarian cancer cells; experiment: cancer cell proliferation assay (Calcein); type: cell-based; conditions: 96 hours (FIG. 114)
Description: Small molecule inhibition of cancer cell proliferation studies were also performed on several cancer sub-types. […] The small molecules of the invention had the most robust effect on T47D breast cancer cells, which are highly positive for MUC1* growth factor receptor, and its activating ligands NME7AB and NME7-X1. […] For the cancer cell proliferation experiment cancer cells were plated at constant densities (6000 cells/well) into a 96-well White-walled/Clear-bottom Tissue Culture Treated plate (Corning Incorporated, Big Flats, N.Y.). Small molecule analogs are added at T=24 hours in media with 2% FBS. Following the addition of the small molecules, the cells remain untouched for 120 hours with visual confirmations/inspections at 24, 48, 72 and 96 hours post plating. At the 120 hour mark a calcein fluorescence assay (Thermo Fisher Scientific, Waltham, Mass.) is performed on the plate. Calcein fluorescence (final concentration 0.5 uM) is used to assess cell viability. Cancer cell fluorescence is measured in a TECAN SAFIRE^2 spectrophotometer plate reader. The plate is then imaged using an Olympus IX71 fluorescence imaging microscope and montage of the resulting images are assembled using ImageJ.

[6] = system: E-cadherin, fibronectin, vimentin and NF1 expression in naïve stem cells; experiment: RT-PCR of differentiation markers in treated naïve stem cells; type: cell-based, human
Description: FIG. 161 is a graph of RT-PCR measurement of naïve stem cells that have been treated with compounds of the invention. The genes whose expression is measured are E-cadherin, which goes […] as cells undergo epithelial to mesenchymal transition, fibronectin and vimentin, which both increase as stem cells initiate differentiation and NF1, which is one of the first genes to increase when stem cells begin to differentiate down the neural lineage. […] E-cadherin is the opposite; it […] as cells become cancerous. […] Expression of metastatic marker E-cadherin was reduced and expression of differentiation markers fibronectin, vimentin and NF1 were increased (FIG. 162-FIG. 163). Novel compounds of the invention are highly specific. […] Although we discovered that NME1 dimers, NME7AB and NME7-X1 are all activating ligands of the MUC1* growth factor receptor and they bind to its extracellular domain, we have developed ample evidence that both NME7AB and NME7-X1 have other binding partners and can exert oncogenic effects, independent of MUC1*.

[7] = system: MUC1* positive cancer cells; experiment: cancer cell growth in vitro (previously shown); type: cell-based

Compound | effect on naïve stem cell pluripotency, growth or differentiation (visually determined) [1] | inhibition of transition of regular cancer cells to metastatic cancer cells [2] | inhibition of growth of T47D cells [3] | effect on growth of SK-OV-3 cells [4] | effect on growth of OV-90 cells [5] | up-regulation of markers of differentiation in naïve stem cells (RT-PCR) [6] | inhibition of cancer cell growth in vitro [7]
FLR peptide: synthetic peptide corresponding to the extracellular domain of MUC1*, PSMGFR, SEQ ID NO:3 (GTINVHDVETQFNQYKTEAASRYNLTISDVSVSDVPFPFSAQSGA; the extracellular domain of Native Primary Sequence of the MUC1 Growth Factor Receptor (nat-PSMGFR - an example of “PSMGFR”)) | induced differentiation | inhibit the transition of regular cancer cells to metastatic cancer cells | – | – | – | – | –
Cc1[nH]c(/C=C2\C(=O)Nc3ccc(S(=O)(=O)N(C)c4cccc(Cl)c4)cc32)c(C)c1C(=O)N1CCN(C)CC1 [SU11274] | – | – | inhibited growth | no effect | neither the compounds of the invention nor JQ1 or SU11274 had any apparent effect | did not cause up-regulation of markers of differentiation | –
COC(=O)c1ccc(C2c3[nH]c4ccccc4c3CCN2C(=O)c2cccc(Cl)c2)cc1 (centres unmarked) [MN0642] | induced differentiation | – | – | – | – | – | inhibit the growth of cancer cells in vitro

— patent US11931347B2, “Method of screening for agents for differentiating stem cells” (MINERVA BIOTECHNOLOGIES CORPORATION, priority 2015, dated 2024)
